Our source for the IC50, GI50 and inhibition in vivo values is patent US20120149902A1, “PYRROLO[2,3-D]PYRIMIDINE DERIVATIVE” (UBE INDUSTRIES, LTD., priority 2009, published 2012).

For assay [1], the target named is T1, purified human recombinant HER2 kinase (Lys676-Val1255, GST fusion) (Homo sapiens, UniProt P04626).
T1 construct: human recombinant HER2 kinase (Lys676-Val1255, GST fusion); GST
Put plainly: HER2 kinase enzyme inhibitory activity (HTRF). It counts as biochemical. Particulars: 200 μM ATP, FLT3 analogous peptide substrate, 60 minutes at room temperature. The protocol: The HER2 kinase enzyme inhibitory activity of a compound of the present invention was evaluated by using a purified human recombinant HER2 kinase (Lys676-Val1255, GST fusion) and a synthetic peptide as a substrate, and detecting the phosphorylation level of the substrate by the HTRF method (homogeneous time resolved fluorescence method). Specifically, 25 ng/well of activated HER2, 200 μM of ATP, 200 ng/well of FLT3 analogous peptide (biotin label, peptide sequence is AGGSSDNEYFYVDF), and test compound (final concentration 0.01 nM to 30 μM) were mixed in kinase reaction buffer (60 mM HEPES, 5 mM MgCl2, 5 mM MnCl2, 3 mM Na3VO4, 1.25 mM DTT, pH 7.5) to prepare 50 μL/well of total reaction volume, and the mixture was reacted for 60 minutes at room temperature. Then, the phosphorylation reaction was stopped and HTRF reaction was carried out by adding 25 μL/well of PBS solution comprising the following components and reacting the mixture for 12 to 16 hours at 4° C. The following components were dissolved in PBS (pH 7.0) to prepare the PBS solution composition: 60 mM EDTA (final concentration 20 mM), 1.2 M KF (final concentration […]), 1 mg/mL BSA (final concentration 333 μg/mL), 6 μg/mL anti-PY20-Cryptate (Cisbio international, France, final concentration 2 μg/mL), and 15 μg/mL Streptavidin labeled with XL665 (Cisbio international, France, final concentration 5 μg/mL).
(In general: Time-resolved FRET reads energy transfer from a long-lived donor to a nearby acceptor.)

In assay [2] the test system is HER2 overexpressed gastric cancer cell line NCI-N87. Put plainly: Cytotoxic activity (in vitro), CellTiter-Glo viable cell count. It counts as cell-based. Particulars: Homo sapiens, NCI-N87, 72 h, NCI-N87, cultured for 72 hours. As to the method:
The cytotoxic activity of a compound of the present invention was investigated using a HER2 overexpressed gastric cancer cell line NCI-N87. Specifically, an appropriate amount of cells was seeded into a 96-well plate for cell culture at 50 μL/well, and precultured overnight at 37° C. under 5% —CO2 condition. A solution of a test compound in DMSO with dilution series was diluted with medium, and added to the precultured cells at the volume of 50 μL/well. The mixture was prepared such that the final concentration of DMSO became 0.1%. After the mixture was cultured for 72 hours at 37° C. under 5% —CO2 condition, 100 μL/well of CellTiter-Glo solution (Promega, Madison, Wis.) was added, the luminescence was measured using a luminometer (Wallac ARVO™ SX) 10 minutes later, and the viable cell count was determined.
For orientation: ATP-based viability assays read luminescence as a measure of living cells.

In assay [3] the test system is HER2 overexpressed gastric cancer cell line. Put plainly: In vivo anti-tumor effect, subcutaneous tumor transplant in nude mouse. As to conditions: oral, daily except Saturday and Sunday, 2 to 4 weeks, read-out: Tumor growth inhibition ratio (%); for inhibition in vivo at 30 mg/kg: dosage 30 mg/kg; for inhibition in vivo at 60 mg/kg: dosage 60 mg/kg; for inhibition in vivo at 100 mg/kg: dosage 100 mg/kg. As to the method: The anti-tumor effect in vivo of a compound of the present invention was evaluated using a HER2 overexpressed gastric cancer cell line. Specifically, a tumor fragment with about 5 mm square was transplanted subcutaneously using a transplantation needle, or an appropriate number of tumor cells was suspended in saline (Otsuka Pharmaceutical Co., Ltd.) and transplanted under the skin of the right axillary region of a nude mouse using a glass syringe equipped with a two-stage needle for subcutaneous injection. After the confirmation of the engraftment of the transplanted tumors, the mice were classified into groups depending on the tumor volume. The test compounds: the Example Compounds 1-1, 1-2, 1-5, 1-8, 1-13, 1-14, 1-15, 1-19, 1-20, 1-22, 2-1, 2-3, and 3-2 were each dissolved or suspended in an appropriate medium and orally administered forcedly to a mouse. The period of administration was varied from 2 weeks to 4 weeks depending on tumor, and the administration was carried out daily with drug holidays of Saturday and Sunday. The major axis (mm) and the minor axis (mm) of a tumor were measured sequentially using an electronic digital vernier caliper, and evaluated by the tumor growth inhibition ratio (GI %) on the judgement day (in principle, the next day of the final administration) using the following calculating formula.
A: Average tumor volume on the judgement day of the group to which a compound was administered (*)
B: Average tumor volume on the judgement day of the untreated control group (*)
*: The tumor volume is calculated by ½×[major axis of tumor]×[minor axis of tumor]^2.

T1 sequence (P04626 676-1255): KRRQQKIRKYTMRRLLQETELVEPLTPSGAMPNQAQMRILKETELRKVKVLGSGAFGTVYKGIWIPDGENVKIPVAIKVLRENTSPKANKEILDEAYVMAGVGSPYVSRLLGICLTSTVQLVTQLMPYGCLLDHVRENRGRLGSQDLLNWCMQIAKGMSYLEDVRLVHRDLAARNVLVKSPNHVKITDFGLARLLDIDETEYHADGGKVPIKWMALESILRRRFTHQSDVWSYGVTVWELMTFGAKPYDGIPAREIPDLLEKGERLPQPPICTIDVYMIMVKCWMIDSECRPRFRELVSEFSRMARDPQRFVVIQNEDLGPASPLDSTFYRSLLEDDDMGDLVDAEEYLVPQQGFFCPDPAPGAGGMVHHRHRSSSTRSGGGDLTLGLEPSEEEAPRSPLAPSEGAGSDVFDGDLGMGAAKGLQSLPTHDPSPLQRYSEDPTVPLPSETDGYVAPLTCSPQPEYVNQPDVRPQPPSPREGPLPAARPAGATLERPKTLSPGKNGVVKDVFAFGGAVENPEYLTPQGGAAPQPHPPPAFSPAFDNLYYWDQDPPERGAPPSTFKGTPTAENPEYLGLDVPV

Take `CC1CN(Cc2c[nH]c3ncnc(Nc4ccc(Cl)cc4)c23)CCC1N` (single isomer, unassigned; enantiomer 2) [Example 1-23, trans-[5-(4-Amino-3-methylpiperidin-1-ylmethyl)-7H-pyrrolo[2,3-d]pyrimidin-4-yl](4-chlorophenyl)amine [Enantiomer 2]]: the concentration for half-maximal inhibition (IC50) (in general, the point on the concentration scale where inhibition reaches its midpoint) in assay [1] was at least 100 nM. Regarding `CNC1CCN(Cc2c[nH]c3ncnc(Nc4cccc(Br)c4)c23)CC1` [Example 1-18], the GI50 (commonly the concentration that inhibits growth by half) in assay [2] was under 20 nM. In addition, the IC50 in assay [1] was under 10 nM. Turning to `C#Cc1cccc(Nc2ncnc3[nH]cc(CN4CCC(NC)CC4)c23)c1` [Example 3-1, (3-Ethynylphenyl)[5-(4-methylaminopiperidin-1-ylmethyl)-7H-pyrrolo[2,3-d]pyrimidin-4-yl]amine], in assay [2], the GI50 was under 20 nM. For the same molecule, the IC50 in assay [1] was under 10 nM. Turning to `NC1CCN(Cc2c[nH]c3ncnc(Nc4cccc(Br)c4)c23)CC1` [Example 1-8, [5-(4-Aminopiperidin-1-ylmethyl)-7H-pyrrolo[2,3-d]pyrimidin-4-yl](3-bromophenyl)amine], the GI50 in assay [2] was under 20 nM. For the same molecule, the concentration for half-maximal inhibition (IC50) in assay [1] was under 10 nM. Besides, in assay [3], the inhibition in vivo at 30 mg/kg was determined as 59%. In turn, `NC1CCN(Cc2c[nH]c3ncnc(Nc4ccc5occc5c4)c23)CC1` [Example 1-1, [5-(4-Aminopiperidin-1-ylmethyl)-7H-pyrrolo[2,3-d]pyrimidin-4-yl]benzofuran-5-ylamine] registered a GI50 in assay [2] of 20 to 50 nM. Also, the inhibition in vivo at 60 mg/kg in assay [3] was 84%.

In assay [2], `NC1CCN(Cc2c[nH]c3ncnc(Nc4ccc(F)c(Cl)c4)c23)CC1` [Example 1-2, [5-(4-Aminopiperidin-1-ylmethyl)-7H-pyrrolo[2,3-d]pyrimidin-4-yl](3-chloro-4-fluorophenyl)amine] gave a GI50 of 20 to 50 nM. In addition, the inhibition in vivo at 30 mg/kg in assay [3] is 75%.

In the case of `N[C@@H]1CCN(Cc2c[nH]c3ncnc(Nc4ccc5occc5c4)c23)C[C@H]1O` (relative stereo) [Example 2-2, trans-4-Amino-1-[4-(benzofuran-5-ylamino)-7H-pyrrolo[2,3-d]pyrimidin-5-ylmethyl]piperidin-3-ol], the GI50 in assay [2] was in the range of 20 to 50 nM. `N[C@@H]1CCN(Cc2c[nH]c3ncnc(Nc4ccc(F)c(Cl)c4)c23)C[C@H]1O` (relative stereo) [Example 2-1, trans-4-Amino-1-[4-(3-chloro-4-fluorophenylamino)-7H-pyrrolo[2,3-d]pyrimidin-5-ylmethyl]piperidin-3-ol] gave a GI50 in assay [2] of 20 to 50 nM. Also, in assay [3], the inhibition in vivo at 100 mg/kg was found to be 52%. Molecule `COCC1(N)CCN(Cc2c[nH]c3ncnc(Nc4ccc5occc5c4)c23)CC1` [Example 1-17, [5-(4-Amino-4-methoxymethylpiperidin-1-ylmethyl)-7H-pyrrolo[2,3-d]pyrimidin-4-yl](benzofuran-5-yl)amine] had a GI50 in assay [2] of 20 to 50 nM. The IC50 in assay [1] lay in the range of 50 to 100 nM.

Take `C#Cc1cccc(Nc2ncnc3[nH]cc(CN4CCC(N)CC4)c23)c1` [Example 1-5, [5-(4-Aminopiperidin-1-ylmethyl)-7H-pyrrolo[2,3-d]pyrimidin-4-yl](3-ethynylphenyl)amine]: in assay [3], the inhibition in vivo at 30 mg/kg was 90%.

Take `NC1CCN(Cc2c[nH]c3ncnc(Nc4ccc(Cl)c(Cl)c4)c23)CC1` [Example 1-10, [5-(4-Aminopiperidin-1-ylmethyl)-7H-pyrrolo[2,3-d]pyrimidin-4-yl](3,4-dichlorophenyl)amine]: the GI50 in assay [2] was in the range of 20 to 50 nM. For the same molecule, the IC50 in assay [1] is under 10 nM.

Regarding `CC1CN(Cc2c[nH]c3ncnc(Nc4ccc(Cl)cc4)c23)CCC1N` (single isomer, unassigned; enantiomer 1) [Example 1-22, trans-[5-(4-Amino-3-methylpiperidin-1-ylmethyl)-7H-pyrrolo[2,3-d]pyrimidin-4-yl](4-chlorophenyl)amine [Enantiomer 1]], the IC50 in assay [1] fell in the range of 50 to 100 nM. In addition, the inhibition in vivo at 60 mg/kg in assay [3] amounted to 88%. The molecule `COCC1(N)CCN(Cc2c[nH]c3ncnc(Nc4cccc(Br)c4)c23)CC1` [Example 1-16, [5-(4-Amino-4-methoxymethylpiperidin-1-ylmethyl)-7H-pyrrolo[2,3-d]pyrimidin-4-yl](3-bromophenyl)amine] gave a GI50 in assay [2] of under 20 nM. Moreover, the IC50 in assay [1] was under 10 nM. Molecule `N[C@@H]1CCN(Cc2c[nH]c3ncnc(Nc4cccc(Br)c4)c23)C[C@H]1O` (relative stereo) [Example 2-3, trans-4-Amino-1-[4-(3-bromophenylamino)-7H-pyrrolo[2,3-d]pyrimidin-5-ylmethyl]piperidin-3-ol] gave a GI50 in assay [2] of under 20 nM. The inhibition in vivo at 100 mg/kg in assay [3] amounted to 76%. In turn, `Cc1ccc(Nc2ncnc3[nH]cc(CN4CCC(N)CC4)c23)cc1Br` [Example 1-6, [5-(4-Aminopiperidin-1-ylmethyl)-7H-pyrrolo[2,3-d]pyrimidin-4-yl](3-bromo-4-methylphenyl)amine] displayed a GI50 in assay [2] of 20 to 50 nM. The IC50 in assay [1] is under 10 nM. For the molecule `COc1cccc(Nc2ncnc3[nH]cc(CN4CCC(C)(N)CC4)c23)c1` [Example 1-13, [5-(4-Amino-4-methylpiperidin-1-ylmethyl)-7H-pyrrolo[2,3-d]pyrimidin-4-yl](3-methoxyphenyl)amine], the IC50 in assay [1] was under 10 nM. Besides, the inhibition in vivo at 30 mg/kg in assay [3] worked out at 72%.

For `C#Cc1cccc(Nc2ncnc3[nH]cc(CN4CCC(C)(N)CC4)c23)c1` [Example 1-14, [5-(4-Amino-4-methylpiperidin-1-ylmethyl)-7H-pyrrolo[2,3-d]pyrimidin-4-yl](3-ethynylphenyl)amine], in assay [1], the IC50 was in the range of 10 to 50 nM. Also, the inhibition in vivo at 10 mg/kg in assay [3] (dosage 10 mg/kg) was determined as 75%. As to `CC1(N)CCN(Cc2c[nH]c3ncnc(Nc4cccc(Br)c4)c23)CC1` [Example 1-12, [5-(4-Amino-4-methylpiperidin-1-ylmethyl)-7H-pyrrolo[2,3-d]pyrimidin-4-yl](3-bromophenyl)amine], in assay [1], the IC50 is under 10 nM. On to `NC1CCN(Cc2c[nH]c3ncnc(Nc4cc(F)c(F)c(F)c4)c23)CC1` [Example 1-7, [5-(4-Aminopiperidin-1-ylmethyl)-7H-pyrrolo[2,3-d]pyrimidin-4-yl](3,4,5-trifluorophenyl)amine], for which, in assay [2], the GI50 was under 20 nM. The IC50 in assay [1] fell in the range of 10 to 50 nM.

Turning to `C[C@@H]1CN(Cc2c[nH]c3ncnc(Nc4ccc(Cl)cc4)c23)CC[C@H]1N` (relative stereo) [Example 1-21, trans-[5-(4-Amino-3-methylpiperidin-1-ylmethyl)-7H-pyrrolo[2,3-d]pyrimidin-4-yl](4-chlorophenyl)amine], the GI50 in assay [2] was in the range of 20 to 50 nM. Moreover, in assay [1], the IC50 was in the range of 50 to 100 nM. On the same counts, the results for `NC1CCN(Cc2c[nH]c3ncnc(Nc4ccc5[nH]ncc5c4)c23)CC1` [Example 1-9, [5-(4-Aminopiperidin-1-ylmethyl)-7H-pyrrolo[2,3-d]pyrimidin-4-yl](1H-indazol-5-yl)amine] are 50 to 500 nM and 10 to 50 nM.

Take `NC1CCN(Cc2c[nH]c3ncnc(Nc4cc(F)cc(Br)c4)c23)CC1` [Example 1-11, [5-(4-Aminopiperidin-1-ylmethyl)-7H-pyrrolo[2,3-d]pyrimidin-4-yl](3-bromo-5-fluorophenyl)amine]: the concentration for 50% growth inhibition (GI50) in assay [2] lay within 20 to 50 nM. For the same molecule, the IC50 in assay [1] lay in the range of 10 to 50 nM.
